Assay [1] is described as follows: Blockade of human ENaC expressed in HBE cells by short-circuit current assay. The class given is cell-based.
Assay [2] relates to BE. The experiment in a line: Ratio of amiloride IC50 to compound IC50 for human ENaC expressed in HBE cells. The class given is cell-based.
Assay [3] can be described thus: Blockade of guinea pig ENaC expressed in FRT cells by short-circuit current assay. The class given is cell-based. The conditions noted are these: Cavia porcellus.
For assay [4], the system named is Cavia porcellus. The experiment in a line: Ratio of amiloride ED50 to compound ED50 for blockade of ENaC in intratracheally dosed Dunkin Hartley guinea pig. The class given is functional.
In assay [5] the test system is Cavia porcellus. Kind of assay: Blockade of ENaC in intratracheally dosed Dunkin Hartley guinea pig tracheal potential difference model after 1 hr. The class given is functional. The settings on record: inhaled or nasal.

Molecules are shown by their SMILES.

On to `CCCC[C@@H](CNC(=O)c1nc(Cl)c(N)nc1N)[N+](C)(C)C`, for which the IC50 (in general, the point on the concentration scale where inhibition reaches its midpoint) in assay [1] came to 59 nM.

With `CCC[C@@H](CNC(=O)c1nc(Cl)c(N)nc1N)[N+](C)(C)C.[I-]`, in assay [2], the Ratio IC50 turned out to be 10. The IC50 in assay [3] and in assay [1] was 30 nM in each case. Further, in assay [4], the “Ratio ED50” value is listed as 16. Further, the 50% effect level in assay [5] (ED50) was put at a dose of 1 µg/kg.

`CC[C@H](CNC(=O)c1nc(Cl)c(N)nc1N)[N+](C)(C)C` came in with an IC50 in assay [1] of 510 nM.

Regarding `CCC[C@@H](CNC(=O)c1nc(Cl)c(N)nc1N)[N+](C)(C)CCCc1ccc(OC)cc1`, the IC50 in assay [1] came to 4 nM.

With `N/C(=N\C(=O)c1nc(Cl)c(N)nc1N)NCCCCc1ccc(OCC(O)CO)cc1` (configuration not stated) [552-02 FREE BASE], the 50% inhibitory concentration (IC50) in assay [3] was 4 nM; in assay [1], 2 nM. Further, it took a dose of 0.2 µg/kg to reach the 50% effect level in assay [5] (ED50).

In assay [1], `C[C@@H](CNC(=O)c1nc(Cl)c(N)nc1N)[N+](C)(C)C` returned an IC50 of 8090 nM.

In the case of `CCC[C@H](CNC(=O)c1nc(Cl)c(N)nc1N)[N+](C)(C)C`, the IC50 in assay [1] was found to be 290 nM.

In assay [1], `C[N+](C)(C)[C@H](CNC(=O)c1nc(Cl)c(N)nc1N)Cc1ccccc1` had an IC50 of 170 nM.

For the compound `CC(C)[C@H](CNC(=O)c1nc(Cl)c(N)nc1N)[N+](C)(C)C`, the 50% inhibitory concentration (IC50) in assay [1] was determined as 19500 nM.

Regarding `N=C(N)NC(=O)c1nc(Cl)c(N)nc1N` [AMILORIDE], the IC50 in assay [3] was 540 nM; in assay [1] it was 220 nM. The ED50 (commonly the dose that gives a 50% effect, or the effect in half of the subjects) in assay [5] is 16 µg/kg.

Regarding `CC(C)[C@@H](CNC(=O)c1nc(Cl)c(N)nc1N)[N+](C)(C)C`, the IC50 in assay [1] worked out at 2390 nM. This counts as single-digit micromolar.

In the case of `CC[C@@H](CNC(=O)c1nc(Cl)c(N)nc1N)[N+](C)(C)C`, the IC50 in assay [1] was determined as 750 nM.

Regarding `CC(C)(CNC(=O)c1nc(Cl)c(N)nc1N)[N+](C)(C)C`, in assay [1], the IC50 is greater than 30000 nM.

Take `C[C@H](CNC(=O)c1nc(Cl)c(N)nc1N)[N+](C)(C)C`: the IC50 in assay [1] is greater than 10000 nM.
